Reference: patent US9340590B2 (priority 2011, dated 2016)
Read-outs that look alike come from different tables or passages of the source. Positions of bridges follow the written chain, without caps; N, C: chain ends. Non-standard residues stand in square brackets, D forms with d. Residues, ends and D or L forms follow the SMILES beside them. 1Nal = N[C@@H](Cc1cccc2ccccc12)C(=O)O

Assays:
[1] = molecular target: hNav1.5 (Homo sapiens, UniProt Q14524); assay: cell-based
[2] = molecular target: hNav1.3 (Homo sapiens, UniProt Q9NY46); assay: cell-based; details: IonWorks Quattro, read-out: IWQ Use Nav1.3
[3] = clamped to −110 mV, depolarized to −10 mV, 5 min after compound, n=2

Sequence of hNav1.5 (Q14524 whole entry, looked up): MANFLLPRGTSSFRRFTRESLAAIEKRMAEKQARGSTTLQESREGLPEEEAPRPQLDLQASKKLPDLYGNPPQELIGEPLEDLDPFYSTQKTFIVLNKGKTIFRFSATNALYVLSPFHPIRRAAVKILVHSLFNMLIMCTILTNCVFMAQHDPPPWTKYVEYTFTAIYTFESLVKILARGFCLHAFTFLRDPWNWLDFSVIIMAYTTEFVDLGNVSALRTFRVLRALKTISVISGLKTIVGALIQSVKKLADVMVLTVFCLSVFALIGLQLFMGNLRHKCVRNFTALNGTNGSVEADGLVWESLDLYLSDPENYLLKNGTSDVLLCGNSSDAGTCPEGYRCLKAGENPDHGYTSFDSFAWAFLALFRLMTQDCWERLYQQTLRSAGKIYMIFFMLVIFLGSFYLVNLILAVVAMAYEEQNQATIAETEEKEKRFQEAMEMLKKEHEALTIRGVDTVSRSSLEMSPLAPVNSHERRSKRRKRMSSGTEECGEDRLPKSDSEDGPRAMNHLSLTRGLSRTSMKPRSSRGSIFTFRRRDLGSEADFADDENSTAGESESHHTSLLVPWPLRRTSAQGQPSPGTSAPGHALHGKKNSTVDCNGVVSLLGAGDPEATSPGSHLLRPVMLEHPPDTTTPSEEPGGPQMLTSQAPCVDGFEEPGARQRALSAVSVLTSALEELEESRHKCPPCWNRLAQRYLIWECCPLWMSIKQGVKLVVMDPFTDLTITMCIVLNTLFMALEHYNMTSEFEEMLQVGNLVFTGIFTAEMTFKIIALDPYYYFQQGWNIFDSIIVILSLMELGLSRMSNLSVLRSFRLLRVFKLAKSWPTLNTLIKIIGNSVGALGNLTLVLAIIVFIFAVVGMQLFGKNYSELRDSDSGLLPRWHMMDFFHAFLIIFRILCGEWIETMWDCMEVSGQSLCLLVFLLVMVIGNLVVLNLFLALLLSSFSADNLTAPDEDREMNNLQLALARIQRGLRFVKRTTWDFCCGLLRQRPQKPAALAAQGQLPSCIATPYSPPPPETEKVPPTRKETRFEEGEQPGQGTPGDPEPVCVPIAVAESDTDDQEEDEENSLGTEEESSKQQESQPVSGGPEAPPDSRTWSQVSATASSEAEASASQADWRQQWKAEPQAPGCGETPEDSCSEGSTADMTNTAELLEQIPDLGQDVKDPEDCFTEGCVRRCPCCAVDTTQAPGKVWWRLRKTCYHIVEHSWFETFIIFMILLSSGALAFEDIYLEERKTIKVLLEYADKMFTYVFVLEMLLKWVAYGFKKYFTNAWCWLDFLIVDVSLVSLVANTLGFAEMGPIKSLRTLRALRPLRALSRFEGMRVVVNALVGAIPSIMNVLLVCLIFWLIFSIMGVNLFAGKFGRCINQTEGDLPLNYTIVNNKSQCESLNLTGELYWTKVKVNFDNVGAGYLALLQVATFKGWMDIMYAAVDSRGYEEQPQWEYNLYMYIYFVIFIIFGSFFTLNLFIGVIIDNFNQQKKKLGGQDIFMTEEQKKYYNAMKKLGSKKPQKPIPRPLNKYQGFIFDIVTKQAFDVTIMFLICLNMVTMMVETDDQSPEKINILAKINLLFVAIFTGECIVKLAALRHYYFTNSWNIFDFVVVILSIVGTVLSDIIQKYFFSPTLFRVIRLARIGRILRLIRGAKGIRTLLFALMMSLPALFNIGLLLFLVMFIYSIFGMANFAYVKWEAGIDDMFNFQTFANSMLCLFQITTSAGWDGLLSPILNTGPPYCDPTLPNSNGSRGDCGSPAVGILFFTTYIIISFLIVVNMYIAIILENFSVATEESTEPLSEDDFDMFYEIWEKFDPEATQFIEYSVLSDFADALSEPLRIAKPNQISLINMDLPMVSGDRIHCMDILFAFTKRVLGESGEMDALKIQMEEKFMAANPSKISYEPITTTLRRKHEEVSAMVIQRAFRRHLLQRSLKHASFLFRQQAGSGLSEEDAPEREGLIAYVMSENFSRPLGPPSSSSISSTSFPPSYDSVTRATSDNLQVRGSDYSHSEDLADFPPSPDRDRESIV
Sequence of hNav1.3 (Q9NY46 whole entry, looked up): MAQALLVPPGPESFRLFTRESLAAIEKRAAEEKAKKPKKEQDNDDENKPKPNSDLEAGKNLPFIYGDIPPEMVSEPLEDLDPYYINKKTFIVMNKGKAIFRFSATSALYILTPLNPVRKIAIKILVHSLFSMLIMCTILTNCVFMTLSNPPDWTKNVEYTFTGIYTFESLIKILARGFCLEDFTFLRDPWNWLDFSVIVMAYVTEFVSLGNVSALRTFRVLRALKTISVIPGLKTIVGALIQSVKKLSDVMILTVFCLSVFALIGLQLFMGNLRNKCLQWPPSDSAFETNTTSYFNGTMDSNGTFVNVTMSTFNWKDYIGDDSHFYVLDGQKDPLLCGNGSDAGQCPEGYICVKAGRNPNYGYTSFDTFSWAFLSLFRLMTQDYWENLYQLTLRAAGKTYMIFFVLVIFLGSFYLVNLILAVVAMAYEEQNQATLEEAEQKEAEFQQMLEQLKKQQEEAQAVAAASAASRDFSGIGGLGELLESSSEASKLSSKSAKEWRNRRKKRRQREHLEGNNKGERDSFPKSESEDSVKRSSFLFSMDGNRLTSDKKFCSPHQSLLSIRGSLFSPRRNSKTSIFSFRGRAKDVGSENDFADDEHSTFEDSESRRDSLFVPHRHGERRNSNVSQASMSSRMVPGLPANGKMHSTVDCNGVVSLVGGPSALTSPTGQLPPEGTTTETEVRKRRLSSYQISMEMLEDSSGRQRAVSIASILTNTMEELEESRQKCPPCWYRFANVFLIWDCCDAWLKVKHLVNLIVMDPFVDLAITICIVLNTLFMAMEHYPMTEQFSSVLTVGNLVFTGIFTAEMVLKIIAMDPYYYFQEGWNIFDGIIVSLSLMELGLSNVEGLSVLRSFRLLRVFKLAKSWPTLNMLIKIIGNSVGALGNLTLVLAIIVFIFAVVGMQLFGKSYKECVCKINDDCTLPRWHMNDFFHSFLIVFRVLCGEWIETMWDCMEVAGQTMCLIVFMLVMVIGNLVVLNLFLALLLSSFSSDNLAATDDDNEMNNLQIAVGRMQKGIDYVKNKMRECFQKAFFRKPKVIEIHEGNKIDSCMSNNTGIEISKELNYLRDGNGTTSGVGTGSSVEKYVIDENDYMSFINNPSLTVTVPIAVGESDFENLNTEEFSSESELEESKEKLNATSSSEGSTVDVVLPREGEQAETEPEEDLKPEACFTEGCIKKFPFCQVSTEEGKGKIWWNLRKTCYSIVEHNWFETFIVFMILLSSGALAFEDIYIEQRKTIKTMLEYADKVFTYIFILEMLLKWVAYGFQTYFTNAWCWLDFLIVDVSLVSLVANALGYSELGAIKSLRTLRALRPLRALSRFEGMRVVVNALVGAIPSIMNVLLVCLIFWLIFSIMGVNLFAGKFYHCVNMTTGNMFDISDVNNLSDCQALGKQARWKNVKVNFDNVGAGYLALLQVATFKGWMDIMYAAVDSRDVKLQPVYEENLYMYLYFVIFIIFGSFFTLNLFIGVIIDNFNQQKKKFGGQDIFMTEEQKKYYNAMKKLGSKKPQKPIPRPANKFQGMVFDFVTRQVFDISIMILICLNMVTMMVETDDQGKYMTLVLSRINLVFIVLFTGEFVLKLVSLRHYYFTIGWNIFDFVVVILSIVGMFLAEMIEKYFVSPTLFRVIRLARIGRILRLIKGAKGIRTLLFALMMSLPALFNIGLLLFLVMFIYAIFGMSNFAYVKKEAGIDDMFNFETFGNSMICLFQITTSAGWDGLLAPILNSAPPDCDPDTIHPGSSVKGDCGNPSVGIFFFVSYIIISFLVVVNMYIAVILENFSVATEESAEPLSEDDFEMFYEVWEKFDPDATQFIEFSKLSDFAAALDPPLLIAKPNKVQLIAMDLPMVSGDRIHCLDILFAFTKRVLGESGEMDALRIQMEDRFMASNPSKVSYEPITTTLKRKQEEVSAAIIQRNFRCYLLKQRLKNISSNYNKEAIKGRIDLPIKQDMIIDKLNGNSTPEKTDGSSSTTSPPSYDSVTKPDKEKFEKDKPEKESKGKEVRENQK

SMILES	IC50 ([1]; IWQ Use Nav1.5) [µM]	IC50 [2, 3] [µM]	also measured
CC[C@H](C)[C@@H]1NC(=O)[C@@H]2CSSC[C@@H]3NC(=O)[C@H](C(C)C)NC(=O)[C@H](CC(C)C)NC(=O)[C@H](CC(N)=O)NC(=O)[C@@H]4CCCN4C(=O)[C@H](CCCNC(=N)N)NC(=O)[C@H](CSSC[C@H](NC(=O)[C@@H](N)CC(=O)O)C(=O)N[C@@H](CC(C)C)C(=O)N[C@@H](CCC(=O)O)C(=O)N[C@@H](Cc4ccccc4)C(=O)N[C@@H](CCSC)C(=O)N[C@@H](CCCNC(=N)N)C(=O)N[C@@H](CCCCN)C(=O)N2)NC(=O)[C@H](CSSC[C@@H](C(=O)N[C@@H](CCCCN)C(=O)N[C@@H](Cc2ccc(O)cc2)C(=O)N[C@H](C(=O)N[C@@H](Cc2ccccc2)C(N)=O)C(C)C)NC(=O)[C@H](Cc2c[nH]c4ccccc24)NC(=O)[C@H](CCCCN)NC(=O)[C@H](Cc2cnc[nH]2)NC(=O)[C@H]([C@@H](C)O)NC(=O)[C@H](CCCNC(=N)N)NC(=O)[C@H](CO)NC3=O)NC(=O)[C@H](CCCCN)NC(=O)[C@H](CC(=O)O)NC(=O)[C@H](CC(N)=O)NC(=O)[C@H](CC(=O)O)NC(=O)[C@@H]2CCCN2C1=O [SEQ ID NO: 24] (H-DCLEFMRKCIPDNDKCCRPNLVCSRTHKWCKYVF-NH2; disulfide 2-17, 9-23, 16-30)	17.6	1.33	
CC[C@H](C)[C@@H]1NC(=O)[C@@H]2CSSC[C@@H]3NC(=O)[C@H](C(C)C)NC(=O)[C@H](CC(C)C)NC(=O)[C@H](CC(N)=O)NC(=O)[C@@H]4CCCN4C(=O)[C@H](CCCNC(=N)N)NC(=O)[C@H](CSSC[C@H](NC(=O)[C@@H](N)CC(=O)O)C(=O)N[C@@H](CC(C)C)C(=O)NCC(=O)N[C@@H](Cc4ccccc4)C(=O)N[C@@H](CCSC)C(=O)N[C@@H](CCCNC(=N)N)C(=O)N[C@@H](CCCCN)C(=O)N2)NC(=O)[C@H](CSSC[C@@H](C(=O)N[C@@H](CCCCN)C(=O)N[C@@H](Cc2ccc(O)cc2)C(=O)N[C@@H](CCC(=O)O)C(=O)N[C@@H](Cc2ccccc2)C(N)=O)NC(=O)[C@H](Cc2c[nH]c4ccccc24)NC(=O)[C@H](CCCCN)NC(=O)[C@H](Cc2cnc[nH]2)NC(=O)[C@H]([C@@H](C)O)NC(=O)[C@H](CCCNC(=N)N)NC(=O)[C@H](CO)NC3=O)NC(=O)[C@H](CCCCN)NC(=O)[C@H](CC(=O)O)NC(=O)[C@H](CC(N)=O)NC(=O)[C@H](CC(=O)O)NC(=O)[C@@H]2CCCN2C1=O [SEQ ID NO: 33, [Glu33]GpTx-1] (H-DCLGFMRKCIPDNDKCCRPNLVCSRTHKWCKYEF-NH2; disulfide 2-17, 9-23, 16-30)			IC50 ([1]; Table 26, IonWorks Quattro, use, […], read-out: IWQ Use Nav1.5): 11.5 µM; IC50 ([2]; Table 26, use, […]): 0.39 µM
CC[C@H](C)[C@@H]1NC(=O)[C@@H]2CSSC[C@@H]3NC(=O)[C@H](C(C)C)NC(=O)[C@H](CC(C)C)NC(=O)[C@H](CC(N)=O)NC(=O)[C@@H]4CCCN4C(=O)[C@H](CCCNC(=N)N)NC(=O)[C@H](CSSC[C@H](NC(=O)[C@@H](N)CCCCN)C(=O)N[C@@H](CC(C)C)C(=O)NCC(=O)N[C@@H](Cc4ccccc4)C(=O)N[C@@H](CCSC)C(=O)N[C@@H](CCCNC(=N)N)C(=O)N[C@@H](CCCCN)C(=O)N2)NC(=O)[C@H](CSSC[C@@H](C(=O)N[C@@H](CCCCN)C(=O)N[C@@H](Cc2ccc(O)cc2)C(=O)N[C@H](C(=O)N[C@@H](Cc2ccccc2)C(N)=O)C(C)C)NC(=O)[C@H](Cc2c[nH]c4ccccc24)NC(=O)[C@H](CCCCN)NC(=O)[C@H](Cc2cnc[nH]2)NC(=O)[C@H]([C@@H](C)O)NC(=O)[C@H](CCCNC(=N)N)NC(=O)[C@H](CO)NC3=O)NC(=O)[C@H](CCCCN)NC(=O)[C@H](CC(=O)O)NC(=O)[C@H](CC(N)=O)NC(=O)[C@H](CC(=O)O)NC(=O)[C@@H]2CCCN2C1=O [SEQ ID NO: 37] (H-KCLGFMRKCIPDNDKCCRPNLVCSRTHKWCKYVF-NH2; disulfide 2-17, 9-23, 16-30)	7.29	0.07	
CC[C@H](C)[C@@H]1NC(=O)[C@@H]2CSSC[C@@H]3NC(=O)[C@H](C(C)C)NC(=O)[C@H](CC(C)C)NC(=O)[C@H](CC(N)=O)NC(=O)[C@@H]4CCCN4C(=O)[C@H](CCCNC(=N)N)NC(=O)[C@H](CSSC[C@H](NC(=O)[C@@H](N)CCCNC(=N)N)C(=O)N[C@@H](CC(C)C)C(=O)NCC(=O)N[C@@H](Cc4ccccc4)C(=O)N[C@@H](CCSC)C(=O)N[C@@H](CCCNC(=N)N)C(=O)N[C@@H](CCCCN)C(=O)N2)NC(=O)[C@H](CSSC[C@@H](C(=O)N[C@@H](CCCCN)C(=O)N[C@@H](Cc2ccc(O)cc2)C(=O)N[C@H](C(=O)N[C@@H](Cc2ccccc2)C(N)=O)C(C)C)NC(=O)[C@H](Cc2c[nH]c4ccccc24)NC(=O)[C@H](CCCCN)NC(=O)[C@H](Cc2cnc[nH]2)NC(=O)[C@H]([C@@H](C)O)NC(=O)[C@H](CCCNC(=N)N)NC(=O)[C@H](CO)NC3=O)NC(=O)[C@H](CCCCN)NC(=O)[C@H](CC(=O)O)NC(=O)[C@H](CC(N)=O)NC(=O)[C@H](CC(=O)O)NC(=O)[C@@H]2CCCN2C1=O [SEQ ID NO: 62] (H-RCLGFMRKCIPDNDKCCRPNLVCSRTHKWCKYVF-NH2; disulfide 2-17, 9-23, 16-30)		0.1	IC50 ([1]; IonWorks Quattro, clamped to −110 mV, depolarized to −10 mV, 5 min after compound, n=2, read-out: IWQ Use Nav1.5): 8.78 µM
CC[C@H](C)[C@@H]1NC(=O)[C@@H]2CSSC[C@@H]3NC(=O)[C@H](C(C)C)NC(=O)[C@H](CC(C)C)NC(=O)[C@H](CC(N)=O)NC(=O)[C@@H]4CCCN4C(=O)[C@H](CCCNC(=N)N)NC(=O)[C@H](CSSC[C@H](NC(=O)[C@@H](N)CC(=O)O)C(=O)N[C@@H](CC(C)C)C(=O)NCC(=O)N[C@@H](Cc4ccccc4)C(=O)N[C@@H](CCSC)C(=O)N[C@@H](CCCNC(=N)N)C(=O)N[C@@H](CCCCN)C(=O)N2)NC(=O)[C@H](CSSC[C@@H](C(=O)N[C@@H](CCCCN)C(=O)N[C@@H](Cc2ccc(O)cc2)C(=O)N[C@H](C(=O)N[C@@H](Cc2ccccc2)C(N)=O)C(C)C)NC(=O)[C@H](Cc2cccc4ccccc24)NC(=O)[C@H](CCCCN)NC(=O)[C@H](Cc2cnc[nH]2)NC(=O)[C@H]([C@@H](C)O)NC(=O)[C@H](CCCNC(=N)N)NC(=O)[C@H](CO)NC3=O)NC(=O)[C@H](CCCCN)NC(=O)[C@H](CC(=O)O)NC(=O)[C@H](CC(N)=O)NC(=O)[C@H](CC(=O)O)NC(=O)[C@@H]2CCCN2C1=O [SEQ ID NO: 79, [1-Nal29]GpTx-1] (H-DCLGFMRKCIPDNDKCCRPNLVCSRTHK[1Nal]CKYVF-NH2; disulfide 2-17, 9-23, 16-30)			IC50 ([1]; Table 24, IonWorks Quattro, use, […], read-out: IWQ Use Nav1.5): 9.25 µM; IC50 ([2]; Table 24, use, […]): 1.55 µM
CSCC[C@@H]1NC(=O)[C@H](Cc2ccccc2)NC(=O)CNC(=O)[C@H](CC(C)C)NC(=O)[C@@H](NC(=O)[C@@H](N)CC(=O)O)CSSC[C@@H]2NC(=O)[C@@H]3CSSC[C@@H](C(=O)N[C@@H](CCCCN)C(=O)N[C@@H](Cc4ccc(O)cc4)C(=O)N[C@H](C(=O)N[C@@H](Cc4ccccc4)C(N)=O)C(C)C)NC(=O)[C@H](Cc4c[nH]c5ccccc45)NC(=O)[C@H](CCCCN)NC(=O)[C@H](Cc4cnc[nH]4)NC(=O)[C@H]([C@@H](C)O)NC(=O)[C@H](CCCNC(=N)N)NC(=O)[C@H](CO)NC(=O)[C@H](CSSC[C@H](NC(=O)[C@H](CCCCN)NC(=O)[C@H](CCCNC(=N)N)NC1=O)C(=O)N[C@@H](CC(=O)O)C(=O)N1CCC[C@H]1C(=O)N[C@@H](CC(=O)O)C(=O)N[C@@H](CC(N)=O)C(=O)N[C@@H](CC(=O)O)C(=O)N[C@@H](CCCCN)C(=O)N3)NC(=O)[C@H](C(C)C)NC(=O)[C@H](CC(C)C)NC(=O)[C@H](CC(N)=O)NC(=O)[C@@H]1CCCN1C(=O)[C@H](CCCNC(=N)N)NC2=O [SEQ ID NO: 119, [Asp10]GpTx-1] (H-DCLGFMRKCDPDNDKCCRPNLVCSRTHKWCKYVF-NH2; disulfide 2-17, 9-23, 16-30)			IC50 ([1]; IonWorks Quattro, Use, read-out: IWQ Use Nav1.5): 11.3 µM; IC50 ([2]; Use): 0.16 µM
CC[C@H](C)[C@@H]1NC(=O)[C@@H]2CSSC[C@@H]3NC(=O)[C@H](C(C)C)NC(=O)[C@H](CC(C)C)NC(=O)[C@H](CC(N)=O)NC(=O)[C@@H]4CCCN4C(=O)[C@H](CCCNC(=N)N)NC(=O)[C@H](CSSC[C@H](NC(=O)[C@@H](N)CC(=O)O)C(=O)N[C@@H](CC(C)C)C(=O)N[C@@H](C)C(=O)N[C@@H](Cc4ccccc4)C(=O)N[C@@H](CCSC)C(=O)N[C@@H](CCCNC(=N)N)C(=O)N[C@@H](CCCCN)C(=O)N2)NC(=O)[C@H](CSSC[C@@H](C(=O)N[C@@H](CCCCN)C(=O)N[C@@H](Cc2ccc(O)cc2)C(=O)N[C@H](C(=O)N[C@@H](Cc2ccccc2)C(N)=O)C(C)C)NC(=O)[C@H](Cc2c[nH]c4ccccc24)NC(=O)[C@H](CCCCN)NC(=O)[C@H](Cc2cnc[nH]2)NC(=O)[C@H]([C@@H](C)O)NC(=O)[C@H](CCCNC(=N)N)NC(=O)[C@H](CO)NC3=O)NC(=O)[C@H](CCCCN)NC(=O)[C@H](CC(=O)O)NC(=O)[C@H](CC(N)=O)NC(=O)[C@H](CC(=O)O)NC(=O)[C@@H]2CCCN2C1=O [SEQ ID NO: 141] (H-DCLAFMRKCIPDNDKCCRPNLVCSRTHKWCKYVF-NH2; disulfide 2-17, 9-23, 16-30)	11.3	0.21	
